Assay results: patent US20040019082A1, “Reversible infertility in male mice following oral administration of alkylated imino sugars: a non-hormonal approach to male contraception” (United Therapeutics Corporation, priority 2002, published 2004)

Tests used:
[1] = system: male C57BL/6 mice; experiment: Mating assay, fertility of male mice; format: in vivo, mouse
Excerpt: Treatment of mice—Male C57BL/6 mice were housed under standard non-sterile conditions. The mice were provided with water ad lib. and prior to drug administration were fed a diet of pelleted mouse chow (expanded Rat and Mouse Chow 3, SDS Ltd.) To administer the compounds of the present invention, the mice were fed a diet of powdered mouse chow (expanded Rat and Mouse Chow 1, ground, SDS Ltd.) containing either NB-DNJ, NB-DGJ, NN-6-MeDGJ, or DNJ. The diet and compound (both as dry solids) were mixed thoroughly, stored at room temperature, and used within 7 days of mixing.
Mating assays—To assess the fertility of male mice that were fed on a diet containing an iminosugar, a mating assay was used: typically six week old male C57BL/6 mice in groups of three were administered diet containing compound for five weeks (unless otherwise specified), after which each of them was caged with four untreated female C57BL/6 mice, and provided with standard pelleted chow. Females were at least 11 weeks old, and age-matched in each experiment. The male was removed from the females after 7 or 9 days, depending on the experiment; the females were monitored for vaginal mucous plugs, pregnancies, and, if any, litter sizes. To study any effect on female fertility six-week-old female C57BL/6 mice were treated with NB-DNJ for five weeks, after which each of them was caged with a non-treated age-matched male for four days.

[2] = system: epididymal spermatozoa; experiment: Electron microscopy of epididymal spermatozoa; format: in vivo, mouse
Description: For scanning electron microscopy, dried smears of murine spermatozoa were prepared as described above. Cells were fixed for 20 min in 4% paraformaldehyde in PBS, transferred to 70, 80 and 95% ethanol, critical-point dried in a Polaron CPD7501 instrument, gold-coated using a Nanotech Semprep2, and examined in a Hitachi S800 FEG-SEM at 3 kV. For transmission electronmicroscopy epididymal spermatozoa were collected in 1 mg/ml cold water soluble polyvinylalcohol in PBS, and spun for 10 min. at 600×g. Pelleted cells were fixed overnight at 4° C. with 1% glutaraldehyde, 0.2% picric acid in 0.2 M cacodylic acid pH 7.4, washed once in 0.1 M cacodylic acid pH 7.4, and stored in 70% ethanol. Cells were postfixed with 2% osmium letroxide, embedded in araldite, sectioned at 70 nm, stained with uranyl acetate/lead citrate, and examined with a JEOL JEM-100CX microscope at 80 kV.

[3] = biological target: T1, alpha-glucosidase 1 (Homo sapiens, UniProt Q13724); details: involved in N-glycan synthesis; cited from earlier work
T1 sequence (Q13724 1-837): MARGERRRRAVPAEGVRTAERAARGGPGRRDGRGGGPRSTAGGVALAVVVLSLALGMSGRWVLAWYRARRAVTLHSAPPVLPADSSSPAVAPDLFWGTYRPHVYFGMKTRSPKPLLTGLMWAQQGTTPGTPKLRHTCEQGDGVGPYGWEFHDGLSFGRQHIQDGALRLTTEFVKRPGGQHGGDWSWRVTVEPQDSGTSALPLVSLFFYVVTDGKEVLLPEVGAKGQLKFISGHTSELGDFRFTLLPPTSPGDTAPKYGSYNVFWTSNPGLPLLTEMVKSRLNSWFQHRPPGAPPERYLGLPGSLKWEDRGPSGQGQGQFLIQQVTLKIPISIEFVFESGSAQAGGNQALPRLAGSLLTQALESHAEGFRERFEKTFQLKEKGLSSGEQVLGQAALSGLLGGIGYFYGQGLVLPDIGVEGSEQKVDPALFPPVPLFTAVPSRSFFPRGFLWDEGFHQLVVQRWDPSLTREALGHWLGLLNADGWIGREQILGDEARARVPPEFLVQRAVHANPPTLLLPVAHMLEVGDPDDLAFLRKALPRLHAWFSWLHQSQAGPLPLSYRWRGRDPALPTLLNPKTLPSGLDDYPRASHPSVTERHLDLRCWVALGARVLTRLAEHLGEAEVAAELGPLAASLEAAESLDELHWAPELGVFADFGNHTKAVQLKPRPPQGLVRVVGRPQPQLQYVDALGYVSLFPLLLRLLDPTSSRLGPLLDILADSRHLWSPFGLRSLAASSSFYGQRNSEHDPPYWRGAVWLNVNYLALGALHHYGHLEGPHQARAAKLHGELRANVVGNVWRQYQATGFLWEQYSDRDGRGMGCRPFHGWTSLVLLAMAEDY

[4] = system: epididymal spermatozoa; experiment: Fluorescence microscopy of epididymal spermatozoa (nuclear morphology, acrosomal antigens); format: in vivo, mouse
Description: Fluorescence microscopy—For immunofluorescence, freshly exised vasa deferentia were stripped and caudae epididymides were dissociated with forceps in M2 medium, and spermatozoa were allowed to disperse for 15 min. The resultant suspensions were used to prepare smears on glass slides. After drying in air for 1 hr, cells were fixed in methanol for 2 min., dried and stored at room temperature or 4° C. for one to five days. Before immunostaining smears were immersed in methanol for 5 min., dried, and wetted in PBS containing 0.5% BSA and 0.15 M glycine (PBG). Slides were stained with monoclonal antibodies, either Mab18.6 (1:20 in PBG (Moore, H. D., Smith, C. A., Hartman, T. D. & Bye, A. P. (1987) Gamete Res 17, 245-9)), anti-sp56 (1:67 in PBG, clone 7C5, QED Bioscience (Cheng, A., Le, T., Palacios, M., Bookbinder, L. H., Wassarman, P. M., Suzuki, F. & Bleil, J. D. (1994) J Cell Biol 125, 867-78), and goat anti-mouse immunoglobulins γ and light chains-specific fluorescein isothiocyanate-conjugate (Ortho) according to van Dongen et al. (van Dongen, J. M., Willemsen, R., Ginns, E. I., Sips, H. j., Tager, J. M., Barranger, J. A. & Reuser, A. J. (1985) Eur J Cell Biol 39, 179-189.) Following immunostaining, nuclei were stained for 2 min in 5 μg/ml Hoechst 33342 (Molecular Probes); slides were rinsed in distilled water, and mounted with Vectashield (Vector). Fluorescent probes were examined using an Olympus BX50 microscope equipped with a Princeton Instruments CCD camera. Images were aquired, false-coloured, and overlaid with Metamorph v3.5 software, and further processed with Adobe Photoshop.

[5] = 5 mg/kg per day, five weeks in diet
[6] = 2400 mg/kg per day, taken off the drug after five weeks of treatment

## CCCCN1C[C@H](O)[C@@H](O)[C@H](O)[C@H]1CO [NB-DNJ, N-butyldeoxynojirimycin]
[1]; 1 mg/kg per day, five weeks in diet
  fertility: did not affect
[1]; [5]
  fertility (pregnancies per male): reduced their fertility
  litter size: reduced
[1]; 15 mg/kg per day, five weeks in diet
  fertility: completely infertile
[1]; 2400 mg/kg per day oral, one or two weeks of treatment, six-week old males
  fertility, capacity to sire normal-sized litters: this capacity was maintained
[1]; 2400 mg/kg per day oral, weekly increments
  infertility, length of treatment needed: infertile after at least three weeks
[1]; [6]
  litter size after withdrawal: normal-sized litters
  regain of fertility after withdrawal: regained fertility in the fourth week
[1]; 13 week old males, 2400 mg/kg per day for five weeks
  fertility: complete sterility
[1]; NB-DNJ dose range, five weeks in diet
  frequency of post-coital vaginal mucous plugs (mating behavior): not affected
[1]; oral, male mice
  dose required for induced infertility: at least 15 mg/kg/day
[2]; 1,200 mg/kg/day (FIG. 5)
  tails and mitochondria of epididymal spermatozoa: induced a number of abnormalities
[2]; 1,200 mg/kg/day (FIGS. 5D-5F)
  acrosomal elements covering the nuclei, ultrastructural level: no typical acrosomal elements were seen
[3]
  inhibition of alpha-glucosidase 1: potent inhibitor
[4]; 15 mg/kg/day
  fraction of spermatozoa stained with Mab18.6 or anti-sp56 (acrosomal antigens): below 10%
[4]; 150 mg/kg/day (FIGS. 4D-4F)
  nuclear shape of cauda epididymal sperm cells: various abnormally shaped nuclei
[4]; 1200 mg/kg/day compared with 15-150 mg/kg/day
  frequency of antibody staining (acrosomal antigens): more frequent
[4]; 1200 mg/kg/day compared with 50-150 mg/kg/day, p<0.01
  frequency of normal nuclear morphology: significantly more often
[4]; 15 to 1200 mg/kg/day, average, n=3
  incidence of (near)-normal acrosomal staining among Mab18.6-positive cells: 31±10%
[4]; minimal dose to achieve complete infertility
  percentage of caudal spermatozoa with (near)-normal nuclei: below 6%
